Assay results as given in ChEMBL document CHEMBL1155531, “Structure guided design of 5-arylindazole glucocorticoid receptor agonists and antagonists” (J Med Chem, 2010).

Tests used:
Glucocorticoid receptor [1] = target: T1, Glucocorticoid receptor (Homo sapiens, UniProt P04150); experiment: Displacement of fluorescent-labeled Dexamethasone from GR by fluorescent polarization assay
T1 sequence (P04150 whole entry): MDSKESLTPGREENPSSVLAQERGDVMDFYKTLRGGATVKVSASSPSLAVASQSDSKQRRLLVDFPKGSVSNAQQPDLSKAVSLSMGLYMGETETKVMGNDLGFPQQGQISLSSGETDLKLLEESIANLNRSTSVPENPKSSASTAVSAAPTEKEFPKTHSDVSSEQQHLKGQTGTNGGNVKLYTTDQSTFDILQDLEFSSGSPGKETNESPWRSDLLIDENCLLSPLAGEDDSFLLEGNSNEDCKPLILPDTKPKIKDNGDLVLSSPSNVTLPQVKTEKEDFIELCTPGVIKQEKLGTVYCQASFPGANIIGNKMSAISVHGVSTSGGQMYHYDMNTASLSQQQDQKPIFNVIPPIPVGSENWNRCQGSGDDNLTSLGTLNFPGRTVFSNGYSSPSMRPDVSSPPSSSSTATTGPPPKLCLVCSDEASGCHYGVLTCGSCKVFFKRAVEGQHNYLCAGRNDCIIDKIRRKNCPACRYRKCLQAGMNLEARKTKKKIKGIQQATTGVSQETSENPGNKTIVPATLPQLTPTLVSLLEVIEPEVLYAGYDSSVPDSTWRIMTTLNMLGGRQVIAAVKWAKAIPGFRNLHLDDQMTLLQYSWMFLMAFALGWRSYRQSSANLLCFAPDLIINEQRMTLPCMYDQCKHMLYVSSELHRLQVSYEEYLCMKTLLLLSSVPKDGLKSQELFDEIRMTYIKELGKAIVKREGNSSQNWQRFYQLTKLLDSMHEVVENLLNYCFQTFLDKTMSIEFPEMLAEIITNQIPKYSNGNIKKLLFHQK

Glucocorticoid receptor [2] = target: T1, Glucocorticoid receptor; experiment: Activity at GR in human A549 cells by NF-kappaB transrepression assay; type: cell-based
Androgen receptor = target: T2, Androgen receptor (Homo sapiens, UniProt P10275)
T2 sequence (P10275 whole entry): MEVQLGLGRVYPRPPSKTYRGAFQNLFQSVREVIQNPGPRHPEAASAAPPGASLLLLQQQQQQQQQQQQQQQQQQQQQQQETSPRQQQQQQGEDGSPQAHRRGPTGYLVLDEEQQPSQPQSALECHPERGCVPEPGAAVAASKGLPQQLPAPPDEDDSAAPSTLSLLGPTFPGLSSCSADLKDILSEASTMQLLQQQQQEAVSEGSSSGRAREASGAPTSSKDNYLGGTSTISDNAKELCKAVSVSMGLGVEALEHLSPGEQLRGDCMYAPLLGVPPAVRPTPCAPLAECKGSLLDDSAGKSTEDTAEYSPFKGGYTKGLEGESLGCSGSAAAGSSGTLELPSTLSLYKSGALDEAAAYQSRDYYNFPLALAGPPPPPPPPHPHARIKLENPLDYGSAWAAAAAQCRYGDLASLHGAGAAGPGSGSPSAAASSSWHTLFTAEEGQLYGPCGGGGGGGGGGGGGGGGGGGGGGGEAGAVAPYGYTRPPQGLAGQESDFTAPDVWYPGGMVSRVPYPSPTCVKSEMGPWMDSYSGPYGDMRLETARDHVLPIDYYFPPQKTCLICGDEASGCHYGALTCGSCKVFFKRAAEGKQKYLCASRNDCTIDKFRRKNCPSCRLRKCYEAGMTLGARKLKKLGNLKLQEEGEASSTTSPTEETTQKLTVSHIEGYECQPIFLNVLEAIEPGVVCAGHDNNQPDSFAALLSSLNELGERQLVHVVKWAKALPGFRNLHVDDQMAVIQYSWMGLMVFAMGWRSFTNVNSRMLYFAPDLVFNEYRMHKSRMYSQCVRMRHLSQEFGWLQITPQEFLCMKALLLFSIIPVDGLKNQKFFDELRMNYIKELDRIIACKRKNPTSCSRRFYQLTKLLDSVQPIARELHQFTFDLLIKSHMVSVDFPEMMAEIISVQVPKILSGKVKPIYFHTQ

Progesterone receptor = target: T3, Progesterone receptor (Homo sapiens, UniProt P06401); experiment: Binding affinity to PR
T3 sequence (P06401 whole entry): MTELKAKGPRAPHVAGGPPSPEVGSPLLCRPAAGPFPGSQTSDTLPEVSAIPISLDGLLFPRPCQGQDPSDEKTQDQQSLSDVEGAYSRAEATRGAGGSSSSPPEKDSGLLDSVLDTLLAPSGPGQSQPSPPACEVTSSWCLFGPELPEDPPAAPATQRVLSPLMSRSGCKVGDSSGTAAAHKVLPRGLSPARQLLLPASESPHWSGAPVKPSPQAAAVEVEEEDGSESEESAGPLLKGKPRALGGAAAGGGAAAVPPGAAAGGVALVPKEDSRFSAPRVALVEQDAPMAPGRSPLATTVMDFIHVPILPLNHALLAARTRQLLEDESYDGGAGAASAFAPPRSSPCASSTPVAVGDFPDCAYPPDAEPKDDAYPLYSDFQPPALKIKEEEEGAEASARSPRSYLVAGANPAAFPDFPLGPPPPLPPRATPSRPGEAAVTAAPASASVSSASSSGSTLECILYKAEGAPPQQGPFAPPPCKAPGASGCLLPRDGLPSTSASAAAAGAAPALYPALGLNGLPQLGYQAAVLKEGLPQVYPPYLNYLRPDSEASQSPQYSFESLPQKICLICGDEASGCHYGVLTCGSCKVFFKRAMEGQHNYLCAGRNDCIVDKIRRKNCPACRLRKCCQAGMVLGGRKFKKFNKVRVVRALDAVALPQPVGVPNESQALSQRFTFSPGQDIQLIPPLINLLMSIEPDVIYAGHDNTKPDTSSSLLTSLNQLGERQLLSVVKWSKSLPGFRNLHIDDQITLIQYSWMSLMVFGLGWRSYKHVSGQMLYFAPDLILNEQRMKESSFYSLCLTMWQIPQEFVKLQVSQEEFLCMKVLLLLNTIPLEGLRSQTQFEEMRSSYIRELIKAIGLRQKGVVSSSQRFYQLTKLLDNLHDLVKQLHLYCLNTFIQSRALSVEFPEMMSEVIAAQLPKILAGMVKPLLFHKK

Glucocorticoid receptor [3] = target: T1, Glucocorticoid receptor; experiment: Antagonist activity at GR in human A549 cells transfected with luciferase gene linked to MMTV promoter assessed as inhibition of dexamethasone-induced luciferase transactivation activity after 24 hrs; type: functional, cell-based

| IC50 (Glucocorticoid receptor [1]) [µM] | IC50 (Glucocorticoid receptor [2]) [µM] | IC50 (Androgen receptor) [µM] | IC50 (Progesterone receptor) [µM] | IC50 (Glucocorticoid receptor [3]) [µM] | Structure (SMILES) |
| --- | --- | --- | --- | --- | --- |
| 0.0316 | > 10 | 6.31 | 0.794 | 3.16 | CCCNS(=O)(=O)c1ccc(-c2ccc3c(cnn3-c3ccc(F)cc3)c2)c(C(F)(F)F)c1 |
| 1.26 | > 10 | > 10 | 6.31 |  | Cc1ccccc1-c1ccc2c(cnn2-c2ccc(F)cc2)c1 |
| 0.501 | > 10 | > 10 | > 10 |  | CCOc1ccccc1-c1ccc2c(cnn2-c2ccc(F)cc2)c1 |
| 0.0501 | > 10 | > 10 | > 2.51 | 10 | CC(C)(C)c1ccc(S(=O)(=O)Nc2ccc(-c3ccc4c(cnn4-c4ccc(F)cc4)c3)c(C(F)(F)F)c2)cc1 |
| 0.0158 | > 10 | 3.16 | > 10 | 2 | CCCS(=O)(=O)Nc1ccc(-c2ccc3c(cnn3-c3ccc(F)cc3)c2)c(C(F)(F)F)c1 |
| 0.0158 | > 10 | 10 | 5.01 | 2 | O=S(=O)(NCCO)c1ccc(-c2ccc3c(cnn3-c3ccc(F)cc3)c2)c(C(F)(F)F)c1 |
| 0.0398 | > 10 | 6.31 | 0.631 | 3.16 | CC(C)CNS(=O)(=O)c1ccc(-c2ccc3c(cnn3-c3ccc(F)cc3)c2)c(C(F)(F)F)c1 |
| > 2.51 | > 10 | > 10 | > 10 |  | N#Cc1cccc(-c2ccc3c(cnn3-c3ccc(F)cc3)c2)c1 |
| > 10 | > 10 | > 10 | 2 |  | N#Cc1ccc(-c2ccc3c(cnn3-c3ccc(F)cc3)c2)cc1 |
| 0.02 | > 10 | 3.16 | 1.58 | 2 | CCNS(=O)(=O)c1ccc(-c2ccc3c(cnn3-c3ccc(F)cc3)c2)c(C(F)(F)F)c1 |
| 2.51 | > 10 | > 10 | > 10 |  | CCOc1cccc(-c2ccc3c(cnn3-c3ccc(F)cc3)c2)c1 |
| 3.16 | > 10 | > 10 | > 10 |  | Fc1ccc(-n2ncc3cc(-c4ccccc4)ccc32)cc1 |
| 0.0251 | > 10 | > 10 | > 10 | 3.16 | O=S(=O)(Nc1ccccc1)c1ccc(-c2ccc3c(cnn3-c3ccc(F)cc3)c2)c(C(F)(F)F)c1 |
| 0.631 | > 10 | > 10 | > 10 |  | Oc1ccc(-c2ccc3c(cnn3-c3ccc(F)cc3)c2)cc1 |
| 0.251 | > 10 | > 10 | 2.51 |  | Fc1ccc(-n2ncc3cc(-c4ccccc4C(F)(F)F)ccc32)cc1 |
| 3.16 | > 10 | > 10 | > 10 |  | Cc1cccc(-c2ccc3c(cnn3-c3ccc(F)cc3)c2)c1 |
| 3.16 | > 10 | > 10 | 1.58 |  | Fc1ccc(-n2ncc3cc(-c4cccc(C(F)(F)F)c4)ccc32)cc1 |
| 0.398 | > 10 | > 10 | > 10 |  | N#Cc1ccccc1-c1ccc2c(cnn2-c2ccc(F)cc2)c1 |
| > 10 | > 10 | > 10 | > 10 |  | Cc1ccc(-c2ccc3c(cnn3-c3ccc(F)cc3)c2)cc1 |
| 0.794 | > 10 | > 10 | 2.51 |  | Oc1cccc(-c2ccc3c(cnn3-c3ccc(F)cc3)c2)c1 |

| Structure (SMILES) | IC50 (Glucocorticoid receptor [1]) [µM] | IC50 (Glucocorticoid receptor [2]) [µM] | IC50 (Androgen receptor) [µM] | IC50 (Progesterone receptor) [µM] | IC50 (Glucocorticoid receptor [3]) [µM] |
| --- | --- | --- | --- | --- | --- |
| CS(=O)(=O)Nc1ccc(-c2ccc3c(cnn3-c3ccc(F)cc3)c2)c(C(F)(F)F)c1 | 0.01 | > 10 | 5.01 | > 10 | 1.58 |
| Fc1ccc(-n2ncc3cc(-c4ccc(C(F)(F)F)cc4)ccc32)cc1 | > 10 | > 10 | > 10 | > 10 |  |
